This passage reports EC50 results from patent US11254663B2 (BRISTOL-MYERS SQUIBB COMPANY, priority 2019, dated 2022).

In the test the target is FXR (Homo sapiens (Human), UniProt Q96RI1). The experiment in a line: transient human FXR/Gal4-luciferase reporter assay. The following applies: Gal4-hFXR fusion construct, HEK293 reporter cells; response relative to 8 μM GW-4064. It counts as cell-based. The procedure: A Gal4-hFXR fusion construct reporter system was used as the primary assay to characterize compound activity. A construct including 5 copies of the Gal4 promoter response element upstream of a firefly luciferase reporter cDNA was stably expressed in HEK293 cells. This reporter cell line was maintained in Dulbecco's Modified Eagle's medium (DMEM; Gibco) supplemented with 1% penicillin-streptomycin (P/S) solution, 500 μg/mL Zeocin and 10% charcoal/dextran-treated fetal bovine serum (cs-FBS) at 37° C. in a humidified 5% CO2 atmosphere. Another plasmid was constructed in which the human cytomegalovirus promoter in the pcDNA3.1 vector directs the expression of the cDNA encoding a fusion protein comprised of the DNA binding domain from the Gal4 transcription factor fused to the ligand binding domain from human FXR.
Chain of FXR (Q96RI1 262-486): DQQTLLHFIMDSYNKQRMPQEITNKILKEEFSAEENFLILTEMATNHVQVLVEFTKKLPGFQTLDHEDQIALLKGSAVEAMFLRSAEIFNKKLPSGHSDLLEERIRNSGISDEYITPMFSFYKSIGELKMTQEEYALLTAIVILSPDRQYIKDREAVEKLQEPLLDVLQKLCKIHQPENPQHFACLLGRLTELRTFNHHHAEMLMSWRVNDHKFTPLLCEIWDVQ
The day prior to transfection, the reporter cells in culture are detached from the plate with trypsin and plated into a T75 flask at a sufficient density to achieve approximately 90% confluence the next morning. The transfection reagents are prepared by separately diluting 25 μg of the pcDNA3.1-Gal4-FXR plasmid into 1.87 mL of Opti-MEM (Thermo-Fisher), and 40 μL of Lipofectamine 2000 (Thermo-Fisher) into 1.87 mL of Opti-MEM, and then adding the diluted DNA solution into the diluted Lipofectamine 2000 solution and incubating at room temperature for 15-20 minutes. The mixture is further diluted with 10 mL of a solution comprised of DMEM, 10% cs-FBS, and 1% P/S immediately prior to transferring to the cells. The maintenance culture media is aspirated from the cells and the final transfection mixture is added before the cells are incubated overnight at 37° C. in a humidified 5% CO2 atmosphere. This protocol can be scaled up, and the transiently transfected cells can be cryopreserved in an assay-ready format.
For compound testing, 100 nL of the compounds (serial dilutions in DMSO) are dispensed with an Echo acoustic dispenser (Labcyte) into the wells of a Corning/Costar clear bottom 384-well white plate. The transfected cells are harvested, counted, and diluted such that 10-25,000 cells in 25 μL are plated into each well of the 384-well compound assay plate. The compound-treated cells are incubated overnight at 37° C. in a humidified 5% CO2 atmosphere. The next morning 25 μL of Steady-Glo (Promega) are added to each well of the plate, the mixture is incubated for 15 min. with shaking, and luminescence is measured on an Envision (Perkin Elmer) plate reader.
With `O=C(N(CC12CCC(c3nc(C4CC4)no3)(CC1)CC2)c1cccc(-c2ccc(NS(=O)(=O)C(F)(F)F)cc2)c1)C12CC(F)(C1)C2` [Example 267, N-((4-(3-cyclopropyl-1,2,4-oxadiazol-5-yl)bicyclo[2.2.2]octan-1-yl)methyl)-3-fluoro-N-(4′-((trifluoromethyl)sulfonamido)-[1,1′-biphenyl]-3-yl)bicyclo[1.1.1]pentane-1-carboxamide], the EC50 (commonly the concentration giving half of the maximal effect) is 46 nM.

The molecule `CC(C)S(=O)(=O)Nc1ccc(-c2cccc(N(CC34CCC(c5nc(C6CC6)no5)(CC3)CC4)C(=O)C34CC(F)(C3)C4)c2)cc1` [Example 268, N-((4-(3-cyclopropyl-1,2,4-oxadiazol-5-yl)bicyclo[2.2.2]octan-1-yl)methyl)-3-fluoro-N-(4′-((1-methylethyl)sulfonamido)-[1,1′-biphenyl]-3-yl)bicyclo[1.1.1]pentane-1-carboxamide] gave an EC50 of 166 nM.

On to `O=C(N(CC12CCC(c3nc(C4CC4)no3)(CC1)CC2)c1cccc(-c2ccc(NS(=O)(=O)C3CC3)cc2)c1)C12CC(F)(C1)C2` [Example 269, N-(4′-(cyclopropanesulfonamido)-[1,1′-biphenyl]-3-yl)-N-((4-(3-cyclopropyl-1,2,4-oxadiazol-5-yl)bicyclo[2.2.2]octan-1-yl)methyl)-3-fluorobicyclo[1.1.1]pentane-1-carboxamide], for which a half-maximal response (EC50) required 142 nM.

The molecule `CS(=O)(=O)Nc1ccc(-c2cccc(N(CC34CCC(c5nc(C6CC6)no5)(CC3)CC4)C(=O)C34CC(F)(C3)C4)c2)cn1` [Example 270, N-((4-(3-cyclopropyl-1,2,4-oxadiazol-5-yl)bicyclo[2.2.2]octan-1-yl)methyl)-3-fluoro-N-(3-(6-(methylsulfonamido)pyridin-3-yl)phenyl)bicyclo[1.1.1]pentane-1-carboxamide] showed an EC50 of 442 nM.

In turn, `O=C(N(CC12CCC(c3nc(C4CC4)no3)(CC1)CC2)c1cccc(-c2cnc(C3CC3)nc2)c1)C12CC(F)(C1)C2` [Example 271, N-((4-(3-cyclopropyl-1,2,4-oxadiazol-5-yl)bicyclo[2.2.2]octan-1-yl)methyl)-N-(3-(2-cyclopropylpyrimidin-5-yl)phenyl)-3-fluorobicyclo[1.1.1]pentane-1-carboxamide] came in with an EC50 of 23 nM.

`CS(=O)(=O)Nc1ncc(-c2cccc(N(CC34CCC(c5nc(C6CC6)no5)(CC3)CC4)C(=O)C34CC(F)(C3)C4)c2)cn1` [Example 272, N-((4-(3-cyclopropyl-1,2,4-oxadiazol-5-yl)bicyclo[2.2.2]octan-1-yl)methyl)-3-fluoro-N-(3-(2-(methylsulfonamido)pyrimidin-5-yl)phenyl)bicyclo[1.1.1]pentane-1-carboxamide] gave an EC50 of 559 nM.

`COCc1ccc(-c2cccc(N(CC34CCC(c5nc(C6CC6)no5)(CC3)CC4)C(=O)C34CC(F)(C3)C4)c2)cc1` [Example 273, N-((4-(3-cyclopropyl-1,2,4-oxadiazol-5-yl)bicyclo[2.2.2]octan-1-yl)methyl)-3-fluoro-N-(4′-(methoxymethyl)-[1,1′-biphenyl]-3-yl)bicyclo[1.1.1]pentane-1-carboxamide] yielded a 50% effective concentration (EC50) of 52 nM.

The molecule `COCc1ccc(-c2cccc(N(CC34CCC(c5nc(C6CC6)no5)(CC3)CC4)C(=O)C34CC(F)(C3)C4)c2)cn1` [Example 274, N-((4-(3-cyclopropyl-1,2,4-oxadiazol-5-yl)bicyclo[2.2.2]octan-1-yl)methyl)-3-fluoro-N-(3-(6-(methoxymethyl)pyridin-3-yl)phenyl)bicyclo[1.1.1]pentane-1-carboxamide] registered an EC50 of 106 nM.

`Cc1nc2ccc(-c3cccc(N(CC45CCC(c6nc(C7CC7)no6)(CC4)CC5)C(=O)C45CC(F)(C4)C5)c3)cc2o1` [Example 275, N-((4-(3-cyclopropyl-1,2,4-oxadiazol-5-yl)bicyclo[2.2.2]octan-1-yl)methyl)-3-fluoro-N-(3-(2-methylbenzo[d]oxazol-6-yl)phenyl)bicyclo[1.1.1]pentane-1-carboxamide] displayed an EC50 of 58.7 nM.

Molecule `O=C(N(CC12CCC(c3nc(C4CC4)no3)(CC1)CC2)c1cccc(-c2cnc3nc(C4CC4)sc3c2)c1)C12CC(F)(C1)C2` [Example 276, N-((4-(3-cyclopropyl-1,2,4-oxadiazol-5-yl)bicyclo[2.2.2]octan-1-yl)methyl)-N-(3-(2-cyclopropylthiazolo[4,5-b]pyridin-6-yl)phenyl)-3-fluorobicyclo[1.1.1]pentane-1-carboxamide] registered an EC50 of 77.5 nM.

`O=C(N(CC12CCC(c3nc(C4CC4)no3)(CC1)CC2)c1cccc(-c2ccc3ncsc3c2)c1)C12CC(F)(C1)C2` [Example 277, N-(3-(benzo[d]thiazol-6-yl)phenyl)-N-((4-(3-cyclopropyl-1,2,4-oxadiazol-5-yl)bicyclo[2.2.2]octan-1-yl)methyl)-3-fluorobicyclo[1.1.1]pentane-1-carboxamide] registered an EC50 of 35 nM.

Consider `Cc1nc2ncc(-c3cccc(N(CC45CCC(c6nc(C7CC7)no6)(CC4)CC5)C(=O)C45CC(F)(C4)C5)c3)cc2s1` [Example 278, N-((4-(3-cyclopropyl-1,2,4-oxadiazol-5-yl)bicyclo[2.2.2]octan-1-yl)methyl)-3-fluoro-N-(3-(2-methylthiazolo[4,5-b]pyridin-6-yl)phenyl)bicyclo[1.1.1]pentane-1-carboxamide], for which the EC50 stood at 83 nM.

For `N#CC1(c2ccc(-c3cccc(N(CC45CCC(c6nc(C7CC7)no6)(CC4)CC5)C(=O)C45CC(F)(C4)C5)c3)cc2)CC1` [Example 279, N-(4′-(1-cyanocyclopropyl)-[1,1′-biphenyl]-3-yl)-N-((4-(3-cyclopropyl-1,2,4-oxadiazol-5-yl)bicyclo[2.2.2]octan-1-yl)methyl)-3-fluorobicyclo[1.1.1]pentane-1-carboxamide], the midpoint of the response, the EC50, lay at 125 nM.

`O=C(N(CC12CCC(c3nc(C4CC4)no3)(CC1)CC2)c1cccc(-c2ccc(C(F)(F)F)nc2)c1)C12CC(F)(C1)C2` [Example 280, N-((4-(3-cyclopropyl-1,2,4-oxadiazol-5-yl)bicyclo[2.2.2]octan-1-yl)methyl)-3-fluoro-N-(3-(6-(trifluoromethyl)pyridin-3-yl)phenyl)bicyclo[1.1.1]pentane-1-carboxamide] registered a 50% effective concentration (EC50) of 308 nM.

`CCOc1ccc(-c2cccc(N(CC34CCC(c5nc(C6CC6)no5)(CC3)CC4)C(=O)C34CC(F)(C3)C4)c2)cn1` [Example 281, N-((4-(3-cyclopropyl-1,2,4-oxadiazol-5-yl)bicyclo[2.2.2]octan-1-yl)methyl)-N-(3-(6-ethoxypyridin-3-yl)phenyl)-3-fluorobicyclo[1.1.1]pentane-1-carboxamide] had an EC50 of 66 nM.

The molecule `COc1ccc(-c2cccc(N(CC34CCC(c5nc(C6CC6)no5)(CC3)CC4)C(=O)C34CC(F)(C3)C4)c2)cc1` [Example 282, N-((4-(3-cyclopropyl-1,2,4-oxadiazol-5-yl)bicyclo[2.2.2]octan-1-yl)methyl)-3-fluoro-N-(4′-methoxy-[1,1′-biphenyl]-3-yl)bicyclo[1.1.1]pentane-1-carboxamide] had an EC50 of 19 nM.

With `CCOc1ccc(-c2cccc(N(CC34CCC(c5nc(C6CC6)no5)(CC3)CC4)C(=O)C34CC(F)(C3)C4)c2)nn1` [Example 283, N-((4-(3-cyclopropyl-1,2,4-oxadiazol-5-yl)bicyclo[2.2.2]octan-1-yl)methyl)-N-(3-(6-ethoxypyridazin-3-yl)phenyl)-3-fluorobicyclo[1.1.1]pentane-1-carboxamide], the EC50 turned out to be 234 nM.

`O=C(N(CC12CCC(c3nc(C4CC4)no3)(CC1)CC2)c1cccc(-c2ccc3c(c2)OC(F)(F)O3)c1)C12CC(F)(C1)C2` [Example 284, N-((4-(3-cyclopropyl-1,2,4-oxadiazol-5-yl)bicyclo[2.2.2]octan-1-yl)methyl)-N-(3-(2,2-difluorobenzo[d][1,3]dioxol-5-yl)phenyl)-3-fluorobicyclo[1.1.1]pentane-1-carboxamide] gave an EC50 of 233 nM.

The molecule `CCc1ccc(-c2cccc(N(CC34CCC(c5nc(C6CC6)no5)(CC3)CC4)C(=O)C34CC(F)(C3)C4)c2)cc1` [Example 285, N-((4-(3-cyclopropyl-1,2,4-oxadiazol-5-yl)bicyclo[2.2.2]octan-1-yl)methyl)-N-(4′-ethyl-[1,1′-biphenyl]-3-yl)-3-fluorobicyclo[1.1.1]pentane-1-carboxamide] returned a concentration for a half-maximal effect (EC50) of 225 nM.

`O=C(N(CC12CCC(c3nc(C4CC4)no3)(CC1)CC2)c1cccc(-c2ccc(Cl)c(Cl)c2)c1)C12CC(F)(C1)C2` [Example 286, N-((4-(3-cyclopropyl-1,2,4-oxadiazol-5-yl)bicyclo[2.2.2]octan-1-yl)methyl)-N-(3′,4′-dichloro-[1,1′-biphenyl]-3-yl)-3-fluorobicyclo[1.1.1]pentane-1-carboxamide] displayed an EC50 of 361 nM.
